Values quoted from earlier work as cited in patent US12440455B2, “Methods of administering cannabinoids” (IMPACT NATURALS, INC., priority 2022, dated 2025).

Assays:
[1] = test system: SARS-CoV-2; details: Nguyen et al., Sci. Adv. 8, eabi6110 (2022)
[2] = target: CB2 (Homo sapiens, UniProt P34972); details: WHO assessment
CB2, sequence (P34972 whole entry, species assumed): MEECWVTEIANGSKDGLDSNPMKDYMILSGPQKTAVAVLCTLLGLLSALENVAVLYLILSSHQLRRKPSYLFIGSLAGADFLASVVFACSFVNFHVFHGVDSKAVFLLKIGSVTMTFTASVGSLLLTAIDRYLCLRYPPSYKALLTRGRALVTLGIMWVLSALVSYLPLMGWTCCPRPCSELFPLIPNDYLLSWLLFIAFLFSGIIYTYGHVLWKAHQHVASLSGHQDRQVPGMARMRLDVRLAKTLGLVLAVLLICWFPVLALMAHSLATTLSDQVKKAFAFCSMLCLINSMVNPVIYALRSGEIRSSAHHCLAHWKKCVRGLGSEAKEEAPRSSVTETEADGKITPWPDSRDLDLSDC

C=C(C)[C@@H]1CCC(C)=C[C@H]1c1c(O)cc(CCCCC)cc1O [Cannabidiol]
aqueous solubility: approximately 0.013 milligrams per milliliter
inhibition of SARS-CoV-2 replication [1]: inhibit SARS-CoV-2 replication
affinity to CB2 [2]: low affinity
